The source of these data is US10508086B2 (CANCER RESEARCH TECHNOLOGY LIMITED, priority 2014, dated 2019).

The target of one test is Human Full Length PARG (Homo sapiens (Human), UniProt Q86W56). In words: PARG in vitro enzyme assay (TR-FRET). It is filed as biochemical. The note with it: read-out: PARG_EC50_ENZYME. The procedure, abridged:
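Full-length human PARG ([…]) incubated with ribosylated PARP substrate (4.5 nM) for 10 min at room temperature in Tris pH 7.4 buffer with EDTA, EGTA, DTT, KCl. Detection by TR-FRET using anti-6HIS XL665 (14 nM final) and streptavidin europium cryptate (0.75 nM final) after 60 min; Em665/Em620 ratio converted to percent inhibition.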

The next test addresses PARG in HeLa cell line (Homo sapiens (Human), UniProt Q86W56). In words: PARG cell assay (nuclear PAR chains after MMS, immunofluorescence). Format: cell-based. On the procedure:
This method is based on the detection of endogenous levels of poly (ADP) ribose chains present in the nucleus of HeLa cell line using indirect immunofluorescence. MMS stimulation increases PAR chains for up to 25 mins. After that point, PARG is active and breaks down the PAR chains, until by one hour after stimulation no PAR chains are detectable. Inhibition of PARG maintains PAR chains.
Briefly, following compound treatment and treatment with the DNA damaging agent methylmethanesulfonate (MMS), the cell monolayer is fixed, then permeabilised and incubated with a mouse monoclonal antibody raised against multimers of poly(ADP) ribose. After an overnight incubation, excess antibody is removed by washing and an Alexafluor 488-linked secondary antibody which recognises the mouse monoclonal is added together with a nuclear stain (Hoechst 33342). Images of the cells are then captured and analysed on a High Content Screening platform and the total intensity of the nuclear fluorescent signal at […] is quantified.
HeLa cells, seeded in 384-well plates, at 4000/well in 30 μL RPMI 1640 media, supplemented with 10% FBS and 2 mM Glutamax, were incubated overnight at 37° C., 5% CO2.
The following day, cells were dosed in quadruplicate with compound (10 point dose response) and incubated for 1 h at 37° C., 5% CO2.
At the end of the 1 h dosing period, MMS was added to duplicates at a final concentration of 50 μg/mL, for a further hour.
Media was tipped off and the cells fixed with 50 μL ice-cold 95% MetOH/PBS for 15 mins at −20° C. Following a PBS wash, 50 μL PBS/0.1% Triton was added to the cells for 20 mins. Following another PBS wash, anti-PAR antibody (Calbiochem AM80) was diluted 1:4000 in a buffer (PBS+0.5% FBS+0.05% Tween20) and added to the cells and incubated overnight at 4° C.
The following day, cells were washed three times with PBS and then incubated for 1 hr with secondary antibody (Alexa Fluor® 488 goat anti mouse IgG (H+L)) diluted 1:1000 and Hoechst diluted 1:5000 in buffer (5% FBS in PBS+0.05% Tween20).
Cells were washed three times with PBS and the plate sealed with a light-proof seal.
Images of the cells were captured on a ThermoFisher Celllnsight and the mean total intensity of spots fluorescent at 485 nm in the nucleus was reported.

Where [1] appears, read: HeLa cells, MMS 50 μg/mL, read-out: PARG Cell IC50 Geomean.

Read-outs that look alike come from different tables or passages of the source. Some results are limits rather than exact numbers.

Human Full Length PARG, sequence (Q86W56 whole entry): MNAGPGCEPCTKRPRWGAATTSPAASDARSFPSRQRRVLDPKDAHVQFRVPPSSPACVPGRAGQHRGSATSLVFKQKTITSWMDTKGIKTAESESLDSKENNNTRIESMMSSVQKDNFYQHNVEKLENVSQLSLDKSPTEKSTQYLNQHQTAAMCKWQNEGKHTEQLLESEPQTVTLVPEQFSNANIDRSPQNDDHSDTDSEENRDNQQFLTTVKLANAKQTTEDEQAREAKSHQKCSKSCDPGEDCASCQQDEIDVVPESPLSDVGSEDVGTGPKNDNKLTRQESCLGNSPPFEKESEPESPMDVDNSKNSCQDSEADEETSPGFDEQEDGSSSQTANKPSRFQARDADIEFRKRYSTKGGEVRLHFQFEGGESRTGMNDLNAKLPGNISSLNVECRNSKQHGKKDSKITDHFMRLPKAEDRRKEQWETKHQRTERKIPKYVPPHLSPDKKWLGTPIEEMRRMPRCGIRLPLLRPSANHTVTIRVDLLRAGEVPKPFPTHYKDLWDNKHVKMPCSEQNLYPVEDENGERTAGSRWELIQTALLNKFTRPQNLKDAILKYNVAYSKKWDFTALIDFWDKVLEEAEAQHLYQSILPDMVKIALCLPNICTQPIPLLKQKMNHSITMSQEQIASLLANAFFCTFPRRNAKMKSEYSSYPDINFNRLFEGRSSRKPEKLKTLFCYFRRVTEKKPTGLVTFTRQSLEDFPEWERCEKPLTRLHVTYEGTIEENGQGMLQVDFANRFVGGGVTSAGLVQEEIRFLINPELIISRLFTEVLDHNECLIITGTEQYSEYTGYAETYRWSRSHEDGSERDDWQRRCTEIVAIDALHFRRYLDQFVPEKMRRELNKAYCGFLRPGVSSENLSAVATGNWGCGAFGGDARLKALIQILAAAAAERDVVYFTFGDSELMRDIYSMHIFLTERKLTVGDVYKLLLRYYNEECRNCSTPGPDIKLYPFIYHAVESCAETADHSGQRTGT
PARG in HeLa cell line, sequence (Q86W56 whole entry): as above

As to `CCn1c(=O)n(-c2nnc(C(F)F)o2)c2cc(S(=O)(=O)NC3(C)CC3)c(F)cc21` [Example 199, 3-[5-(Difluoromethyl)-1,3,4-oxadiazol-2-yl]-1-ethyl-6-fluoro-N-(1-methylcyclopropyl)-2-oxo-benzimidazole-5-sulfonamide], the EC50 on Human Full Length PARG was 314 nM. In addition, the 50% inhibitory concentration (IC50) on PARG in HeLa cell line (setting [1]) worked out at 145 nM.
The matching figures for `Cn1c(=O)n(-c2nnc(C(F)F)o2)c2cc(S(=O)(=O)NC3(CF)CC3)ccc21` [Example 196, 3-[5-(Difluoromethyl)-1,3,4-oxadiazol-2-yl]-N-[1-(fluoromethyl)cyclopropyl]-1-methyl-2-oxo-benzimidazole-5-sulfonamide]: 789 nM and 469 nM.
With `Cc1nnc(-n2cc(C(=O)c3ccc(F)cc3)c3ccc(S(=O)(=O)NC4(C)CC4)cc32)s1` [Example 131, 3-(4-Fluorobenzoyl)-N-(1-methylcyclopropyl)-1-(5-methyl-1,3,4-thiadiazol-2-yl)indole-6-sulfonamide], at Human Full Length PARG, the EC50 worked out at 261 nM. Besides, it took 228 nM to reach half-maximal inhibition on PARG in HeLa cell line (IC50).
As for `CCn1c(=O)n(-c2nnc(C)s2)c2cc(S(=O)(=O)NC3(C#N)CC3)ccc21` [Example 158, N-(1-Cyanocyclopropyl)-1-ethyl-3-(5-methyl-1,3,4-thiadiazol-2-yl)-2-oxo-benzimidazole-5-sulfonamide], the EC50 at Human Full Length PARG amounted to 1040 nM. Further, on PARG in HeLa cell line (setting [1]), the IC50 is 486 nM.
In the same order, the values of `Cn1c(=O)n(-c2nnc(C(F)F)o2)c2cc(S(=O)(=O)NC3(C)CC3)c(F)cc21` [Example 209, 3-[5-(Difluoromethyl)-1,3,4-oxadiazol-2-yl]-6-fluoro-1-methyl-N-(1-methylcyclopropyl)-2-oxo-benzimidazole-5-sulfonamide] are 930 nM and 219 nM.
As to `CCOC(=O)c1oc2ccc(S(=O)(=O)NC3(C)CC3)cc2c1C` [Example 218, Ethyl 3-methyl-5-[(1-methylcyclopropyl)sulfamoyl]benzofuran-2-carboxylate], the EC50 at Human Full Length PARG was 15800 nM. Besides, at PARG in HeLa cell line (setting [1]), the IC50 is 2810 nM.
With `Cc1nnc(-n2c(=O)[nH]c3cc(F)c(S(=O)(=O)NC4(CF)CC4)cc32)o1` [Example 194, 6-Fluoro-N-[1-(fluoromethyl)cyclopropyl]-3-(5-methyl-1,3,4-oxadiazol-2-yl)-2-oxo-1H-benzimidazole-5-sulfonamide], on Human Full Length PARG, the EC50 stood at 1240 nM. At PARG in HeLa cell line (setting [1]), the IC50 is > 30000 nM.
In the same order, the values of `Cc1nnc(-n2c(=O)n(CCN3CCOCC3)c3ccc(S(=O)(=O)NC4(C)CC4)cc32)s1` [Example 152] are 275 nM and 194 nM.
Turning to `CCn1c(=O)n(-c2nnc(C)o2)c2cc(S(=O)(=O)NC3(C)CC3)ccc21` [Example 190, 1-Ethyl-N-(1-methylcyclopropyl)-3-(5-methyl-1,3,4-oxadiazol-2-yl)-2-oxo-benzimidazole-5-sulfonamide], the EC50 on Human Full Length PARG came to 934 nM. Besides, the IC50 at PARG in HeLa cell line (setting [1]) came to 404 nM.
In the same order, the values of `COCCn1c(=O)n(-c2nnc(C(F)F)s2)c2cc(S(=O)(=O)NC3(C)CC3)ccc21` [Example 169, 3-[5-(Difluoromethyl)-1,3,4-thiadiazol-2-yl]-1-(2-methoxyethyl)-N-(1-methylcyclopropyl)-2-oxo-benzimidazole-5-sulfonamide] are 355 nM and 36 nM.
The matching figures for `CC1(NS(=O)(=O)c2cc3c(cc2F)n(CCF)c(=O)n3-c2nnc(C(F)F)s2)CC1` [Example 217, 3-[5-(Difluoromethyl)-1,3,4-thiadiazol-2-yl]-6-fluoro-1-(2-fluoroethyl)-N-(1-methylcyclopropyl)-2-oxo-benzimidazole-5-sulfonamide]: 156 nM and 36 nM.
In the same order, the values of `COCCn1c(=O)n(-c2nnc(C)s2)c2cc(S(=O)(=O)NC3(C)CC3)ccc21` [Example 147] are 461 nM and 437 nM.
Consider `COc1ccc(Cn2c(=O)n(-c3nnc(C)s3)c3cc(S(=O)(=O)NC4(C)CC4)ccc32)cc1` [Example 86], for which the EC50 at Human Full Length PARG was 403 nM. Moreover, the IC50 at PARG in HeLa cell line (setting [1]) worked out at 277 nM.
Regarding `Cc1nnc(-n2c(=O)[nH]c3cc(F)c(S(=O)(=O)NC4(C)CC4)cc32)o1` [Example 192, 6-Fluoro-N-(1-methylcyclopropyl)-3-(5-methyl-1,3,4-oxadiazol-2-yl)-2-oxo-1H-benzimidazole-5-sulfonamide], the EC50 at Human Full Length PARG was determined as 1460 nM. The IC50 on PARG in HeLa cell line (setting [1]) worked out at 11700 nM.
In the same order, the values of `COCCCn1c(=O)n(-c2nc(C)ns2)c2cc(S(=O)(=O)NC3(CF)CC3)ccc21` [Example 185, N-[1-(Fluoromethyl)cyclopropyl]-1-(3-methoxypropyl)-3-(3-methyl-1,2,4-thiadiazol-5-yl)-2-oxo-benzimidazole-5-sulfonamide] are 3780 nM and 740 nM.
The matching figures for `C#CCn1c(=O)n(-c2nnc(C)s2)c2cc(S(=O)(=O)NC3(C)CC3)ccc21` [Example 100]: 265 nM and 194 nM.
As for `Cc1nnc(-n2c(=O)n(CC#N)c3ccc(S(=O)(=O)NC4(C)CC4)cc32)s1` [Example 166, 1-(Cyanomethyl)-N-(1-methylcyclopropyl)-3-(5-methyl-1,3,4-thiadiazol-2-yl)-2-oxo-benzimidazole-5-sulfonamide], on Human Full Length PARG, the EC50 amounted to 784 nM. In addition, on PARG in HeLa cell line (setting [1]), the IC50 came to 291 nM.
In the same order, the values of `COCCn1c(=O)n(-c2ncns2)c2cc(S(=O)(=O)NC3(CF)CC3)ccc21` [Example 183, N-[1-(Fluoromethyl)cyclopropyl]-1-(2-methoxyethyl)-2-oxo-3-(1,2,4-thiadiazol-5-yl)benzimidazole-5-sulfonamide] are 549 nM and 376 nM.
The matching figures for `NC(=O)Cn1c(=O)n(-c2nnc(C(F)F)s2)c2cc(S(=O)(=O)NC3(CF)CC3)c(F)cc21` [Example 214, 2-[3-[5-(Difluoromethyl)-1,3,4-thiadiazol-2-yl]-6-fluoro-5-[[1-(fluoromethyl)cyclopropyl]sulfamoyl]-2-oxo-benzimidazol-1-yl]acetamide]: 165 nM and 1520 nM.
In the same order, the values of `Cc1nnc(-n2c(=O)n(CCF)c3cc(F)c(S(=O)(=O)NC4(C)CC4)cc32)o1` [Example 198, 6-Fluoro-1-(2-fluoroethyl)-N-(1-methylcyclopropyl)-3-(5-methyl-1,3,4-oxadiazol-2-yl)-2-oxo-benzimidazole-5-sulfonamide] are 419 nM and 297 nM.
Consider `Cn1c(=O)n(-c2nnc(C(F)F)s2)c2cc(S(=O)(=O)NC3(CF)CC3)ccc21` [Example 181, 3-[5-(Difluoromethyl)-1,3,4-thiadiazol-2-yl]-N-[1-(fluoromethyl)cyclopropyl]-1-methyl-2-oxo-benzimidazole-5-sulfonamide], for which, at Human Full Length PARG, the EC50 was determined as 291 nM. Besides, the IC50 on PARG in HeLa cell line (setting [1]) is 109 nM.
`Cc1cc(Cn2c(=O)n(-c3nnc(C)s3)c3cc(S(=O)(=O)NC4(C)CC4)ccc32)n(C)n1` [Example 84]: on Human Full Length PARG, the EC50 is 359 nM. Moreover, on PARG in HeLa cell line (setting [1]), the IC50 was 271 nM.
As for `Cc1nnc(-n2c(=O)n(C)c3cc(F)c(S(=O)(=O)NC4(C)CC4)cc32)s1` [Example 116, 6-Fluoro-1-methyl-N-(1-methylcyclopropyl)-3-(5-methyl-1,3,4-thiadiazol-2-yl)-2-oxo-benzimidazole-5-sulfonamide], the EC50 on Human Full Length PARG was found to be 245 nM. The IC50 on PARG in HeLa cell line (setting [1]) worked out at 197 nM.
With `Cc1nnc(-n2c(=O)n(C)c3cc(F)c(S(=O)(=O)NC4(C)CC4)cc32)o1` [Example 197, 6-Fluoro-1-methyl-N-(1-methylcyclopropyl)-3-(5-methyl-1,3,4-oxadiazol-2-yl)-2-oxo-benzimidazole-5-sulfonamide], at Human Full Length PARG, the EC50 amounted to 759 nM. Also, the half-maximal inhibitory concentration (IC50) on PARG in HeLa cell line (setting [1]) was determined as 538 nM.
Take `COc1nsc(-n2c(=O)n(Cc3sc(C)nc3C)c3ccc(S(=O)(=O)NC4(C)CC4)cc32)n1` [Example 105]: the EC50 at Human Full Length PARG amounted to 269 nM. Besides, at PARG in HeLa cell line (setting [1]), the IC50 stood at 246 nM.
In the same order, the values of `Cc1nc(C)c(Cn2c(=O)n(-c3nccs3)c3cc(S(=O)(=O)NC4(C)CC4)ccc32)s1` [Example 111] are 147 nM and 507 nM.
